Data: patent US8415469B2, “Compounds and methods for kinase modulation, and indications therefor” (Plexxikon Inc., priority 2005, dated 2013)

Legend:
Type in all cases: biochemical
Kdr = target: T1, Kdr (Homo sapiens, UniProt P35968); assay: Z'-Lyte FRET kinase assay (Invitrogen), Kdr; conditions: read-out: IC50, activity toward kinase Kdr
T1 construct: purchased Invitrogen (assay run by Invitrogen)

Stk6 = target: T2, Stk6 (Homo sapiens, UniProt O14965); assay: Z'-Lyte FRET kinase assay (Invitrogen), Stk6; conditions: read-out: IC50, activity toward kinase Stk6
T2 construct: purchased Invitrogen (Carlsbad, Calif.), screening service
T2 sequence (O14965 1-403): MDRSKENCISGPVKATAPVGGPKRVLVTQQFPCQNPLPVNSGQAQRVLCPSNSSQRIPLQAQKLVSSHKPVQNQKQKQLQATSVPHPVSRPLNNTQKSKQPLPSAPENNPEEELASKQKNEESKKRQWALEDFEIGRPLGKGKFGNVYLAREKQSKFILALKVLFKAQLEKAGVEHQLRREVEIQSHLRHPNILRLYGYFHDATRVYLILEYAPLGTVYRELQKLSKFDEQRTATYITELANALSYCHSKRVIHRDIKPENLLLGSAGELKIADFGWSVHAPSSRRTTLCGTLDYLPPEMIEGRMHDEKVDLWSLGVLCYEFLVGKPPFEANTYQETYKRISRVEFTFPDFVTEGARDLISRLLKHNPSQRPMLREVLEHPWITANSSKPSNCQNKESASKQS

IGF1R = IGF1R (Homo sapiens, UniProt P08069); assay: AlphaScreen kinase assay, IGF1R; conditions: read-out: IC50, activity toward kinase IGF1R
Sequence of IGF1R (P08069 31-1367): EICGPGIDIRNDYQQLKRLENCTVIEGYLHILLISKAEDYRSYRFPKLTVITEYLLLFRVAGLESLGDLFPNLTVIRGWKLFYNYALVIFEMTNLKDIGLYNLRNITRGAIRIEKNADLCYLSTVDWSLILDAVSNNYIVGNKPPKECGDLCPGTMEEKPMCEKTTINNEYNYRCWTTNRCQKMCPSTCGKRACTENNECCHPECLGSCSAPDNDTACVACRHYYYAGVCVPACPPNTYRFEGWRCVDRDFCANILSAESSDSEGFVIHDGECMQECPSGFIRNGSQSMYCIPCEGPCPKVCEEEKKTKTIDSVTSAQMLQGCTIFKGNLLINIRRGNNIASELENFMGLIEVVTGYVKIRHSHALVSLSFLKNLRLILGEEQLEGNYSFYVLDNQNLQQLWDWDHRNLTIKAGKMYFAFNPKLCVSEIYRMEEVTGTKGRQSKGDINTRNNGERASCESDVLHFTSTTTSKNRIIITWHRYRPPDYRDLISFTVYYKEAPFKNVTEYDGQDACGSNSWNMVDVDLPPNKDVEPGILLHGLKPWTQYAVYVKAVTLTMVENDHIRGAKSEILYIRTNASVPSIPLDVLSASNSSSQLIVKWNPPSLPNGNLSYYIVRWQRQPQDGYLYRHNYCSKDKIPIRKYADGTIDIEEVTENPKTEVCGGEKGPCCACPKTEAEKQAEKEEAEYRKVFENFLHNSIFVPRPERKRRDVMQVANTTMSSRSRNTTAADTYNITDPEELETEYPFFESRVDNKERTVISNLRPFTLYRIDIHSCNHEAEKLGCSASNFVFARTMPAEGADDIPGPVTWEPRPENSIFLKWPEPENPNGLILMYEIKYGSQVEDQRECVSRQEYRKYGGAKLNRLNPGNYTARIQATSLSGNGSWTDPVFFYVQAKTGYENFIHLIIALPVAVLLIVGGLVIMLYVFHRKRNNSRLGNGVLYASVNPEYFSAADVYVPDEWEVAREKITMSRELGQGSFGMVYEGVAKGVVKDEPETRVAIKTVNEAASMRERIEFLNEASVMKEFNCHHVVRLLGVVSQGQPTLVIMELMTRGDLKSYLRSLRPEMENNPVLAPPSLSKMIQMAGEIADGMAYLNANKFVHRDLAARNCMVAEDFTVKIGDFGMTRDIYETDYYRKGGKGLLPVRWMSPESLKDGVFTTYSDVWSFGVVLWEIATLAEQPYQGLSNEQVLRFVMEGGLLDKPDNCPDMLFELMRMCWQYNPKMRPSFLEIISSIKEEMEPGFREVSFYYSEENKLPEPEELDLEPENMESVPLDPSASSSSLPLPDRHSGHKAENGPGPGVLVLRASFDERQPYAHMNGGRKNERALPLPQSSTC

Jak3 = target: T3, Jak3 (Homo sapiens, UniProt P52333); assay: AlphaScreen kinase assay, Jak3; conditions: read-out: IC50, activity toward kinase Jak3
T3 sequence (P52333 1-1124): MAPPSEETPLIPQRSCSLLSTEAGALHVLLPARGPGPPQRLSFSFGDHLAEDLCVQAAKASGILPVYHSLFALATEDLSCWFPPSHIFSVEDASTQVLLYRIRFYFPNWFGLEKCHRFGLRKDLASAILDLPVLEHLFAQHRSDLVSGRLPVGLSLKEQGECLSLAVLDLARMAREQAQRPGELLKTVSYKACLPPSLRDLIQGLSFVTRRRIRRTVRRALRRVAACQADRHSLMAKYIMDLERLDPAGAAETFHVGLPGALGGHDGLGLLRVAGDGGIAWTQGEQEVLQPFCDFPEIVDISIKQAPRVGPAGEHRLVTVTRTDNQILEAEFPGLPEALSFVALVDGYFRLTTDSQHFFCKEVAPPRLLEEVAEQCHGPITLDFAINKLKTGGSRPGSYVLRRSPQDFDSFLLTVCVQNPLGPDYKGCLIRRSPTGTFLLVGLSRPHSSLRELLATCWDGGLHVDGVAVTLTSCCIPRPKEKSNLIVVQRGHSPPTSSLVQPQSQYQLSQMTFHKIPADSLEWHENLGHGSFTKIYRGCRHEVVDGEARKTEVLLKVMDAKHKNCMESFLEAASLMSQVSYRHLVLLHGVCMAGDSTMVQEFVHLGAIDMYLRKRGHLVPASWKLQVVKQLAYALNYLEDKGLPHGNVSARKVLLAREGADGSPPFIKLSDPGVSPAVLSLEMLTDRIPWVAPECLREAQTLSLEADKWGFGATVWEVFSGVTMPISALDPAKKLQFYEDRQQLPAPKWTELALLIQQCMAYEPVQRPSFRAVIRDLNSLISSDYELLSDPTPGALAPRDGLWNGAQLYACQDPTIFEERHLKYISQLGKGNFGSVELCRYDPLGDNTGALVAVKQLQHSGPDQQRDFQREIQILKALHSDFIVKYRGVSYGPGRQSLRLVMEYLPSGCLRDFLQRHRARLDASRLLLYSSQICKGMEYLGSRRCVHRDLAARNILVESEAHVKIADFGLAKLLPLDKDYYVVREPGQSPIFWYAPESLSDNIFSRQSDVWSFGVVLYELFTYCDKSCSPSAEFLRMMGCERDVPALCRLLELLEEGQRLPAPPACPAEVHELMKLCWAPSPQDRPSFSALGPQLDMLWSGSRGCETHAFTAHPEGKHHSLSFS
Description: (§1) AlphaScreen assay was used to screen additional kinases. The assay is similarly dependent on the phosphorylation of a peptide substrate. In this assay, an antibody that recognizes phosphorylated substrate is bound to an acceptor bead. The peptide substrate is attached to biotin, which binds to a donor head that contains streptavidin. Thus phosphorylated substrate is bound by antibody and streptavidin, bringing the donor and acceptor heads into close proximity when kinase is not inhibited. The donor produces singlet oxygen which results in emission from the acceptor when they are in close proximity. Conversely, when kinase is inhibited, the donor and acceptor beads are not associated and the emission from the acceptor is reduced.
(§2) AlphaScreen assays were done using compounds dissolved in DMSO to a concentration of 20 mM. The compounds were diluted accordingly to the desired final concentrations in each sample well, using 1:3 serial dilution for a total of 8 concentration points.

Plk1 = Plk1 (Homo sapiens, UniProt P53350); assay: AlphaScreen kinase assay, Plk1; conditions: read-out: IC50, activity toward kinase Plk1
Sequence of Plk1 (P53350 whole entry): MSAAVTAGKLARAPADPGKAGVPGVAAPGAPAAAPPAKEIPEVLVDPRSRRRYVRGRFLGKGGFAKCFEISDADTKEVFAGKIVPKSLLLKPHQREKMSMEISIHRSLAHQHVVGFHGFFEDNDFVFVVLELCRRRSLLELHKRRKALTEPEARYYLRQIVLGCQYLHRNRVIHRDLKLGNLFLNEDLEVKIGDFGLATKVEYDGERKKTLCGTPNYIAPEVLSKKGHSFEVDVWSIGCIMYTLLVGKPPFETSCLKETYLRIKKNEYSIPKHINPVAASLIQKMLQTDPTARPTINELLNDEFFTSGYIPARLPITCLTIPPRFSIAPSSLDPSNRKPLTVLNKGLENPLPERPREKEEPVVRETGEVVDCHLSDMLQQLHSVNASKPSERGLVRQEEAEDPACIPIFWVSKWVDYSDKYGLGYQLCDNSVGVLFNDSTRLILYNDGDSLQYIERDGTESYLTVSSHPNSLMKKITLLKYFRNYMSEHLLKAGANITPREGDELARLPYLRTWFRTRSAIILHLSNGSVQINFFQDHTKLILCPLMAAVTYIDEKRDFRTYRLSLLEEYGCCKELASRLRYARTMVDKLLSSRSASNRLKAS
Description: as §1, §2

Ret = target: T4, Ret (Homo sapiens, UniProt P07949); assay: AlphaScreen kinase assay, Ret; conditions: read-out: IC50, activity toward kinase Ret
T4 construct: P1378.pET-SF BI-PTP RET H661-R1012 HIS; made in house
T4 sequence (P07949 with tags, fused parts or gaps): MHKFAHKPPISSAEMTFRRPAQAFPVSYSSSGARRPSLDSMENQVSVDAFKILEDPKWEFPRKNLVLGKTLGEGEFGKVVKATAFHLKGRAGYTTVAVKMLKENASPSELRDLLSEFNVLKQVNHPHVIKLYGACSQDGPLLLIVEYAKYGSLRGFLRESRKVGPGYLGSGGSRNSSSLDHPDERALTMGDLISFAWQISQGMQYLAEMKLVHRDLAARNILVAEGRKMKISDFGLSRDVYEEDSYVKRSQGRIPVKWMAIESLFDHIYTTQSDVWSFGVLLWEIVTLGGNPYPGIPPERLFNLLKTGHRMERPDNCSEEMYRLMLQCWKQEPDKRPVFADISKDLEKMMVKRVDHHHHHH

B-Raf V600E = target: T5, B-Raf V600E (Homo sapiens, UniProt P15056, V600E); assay: AlphaScreen kinase assay, B-Raf V600E; conditions: read-out: IC50, activity toward kinase B-Raf V600E
T5 construct: P4254. pFastBacBD-CDC37 BRAF D437-K722-X, V600E; His6 with pFastBac HT leader (TEV site) (N); made in house; host or cells: Sf9 (baculovirus; chaperone CDC37 co-expressed)
T5 sequence (P15056 with tags, fused parts or gaps V600E): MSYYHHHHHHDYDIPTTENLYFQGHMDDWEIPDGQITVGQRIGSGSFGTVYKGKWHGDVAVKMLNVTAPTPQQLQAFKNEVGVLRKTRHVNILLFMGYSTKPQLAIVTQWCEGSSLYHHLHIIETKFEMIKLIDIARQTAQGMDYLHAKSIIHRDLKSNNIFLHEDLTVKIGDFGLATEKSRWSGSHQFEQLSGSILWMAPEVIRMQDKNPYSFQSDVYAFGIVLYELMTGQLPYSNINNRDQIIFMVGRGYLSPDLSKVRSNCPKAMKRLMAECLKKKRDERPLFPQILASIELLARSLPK

c-Raf-1 = target: T6, c-Raf-1 (Homo sapiens, UniProt P04049); assay: AlphaScreen kinase assay, c-Raf-1; conditions: read-out: IC50, activity toward kinase c-Raf-1
T6 construct: purchased Upstate Biotechnology
T6 sequence (P04049 whole entry): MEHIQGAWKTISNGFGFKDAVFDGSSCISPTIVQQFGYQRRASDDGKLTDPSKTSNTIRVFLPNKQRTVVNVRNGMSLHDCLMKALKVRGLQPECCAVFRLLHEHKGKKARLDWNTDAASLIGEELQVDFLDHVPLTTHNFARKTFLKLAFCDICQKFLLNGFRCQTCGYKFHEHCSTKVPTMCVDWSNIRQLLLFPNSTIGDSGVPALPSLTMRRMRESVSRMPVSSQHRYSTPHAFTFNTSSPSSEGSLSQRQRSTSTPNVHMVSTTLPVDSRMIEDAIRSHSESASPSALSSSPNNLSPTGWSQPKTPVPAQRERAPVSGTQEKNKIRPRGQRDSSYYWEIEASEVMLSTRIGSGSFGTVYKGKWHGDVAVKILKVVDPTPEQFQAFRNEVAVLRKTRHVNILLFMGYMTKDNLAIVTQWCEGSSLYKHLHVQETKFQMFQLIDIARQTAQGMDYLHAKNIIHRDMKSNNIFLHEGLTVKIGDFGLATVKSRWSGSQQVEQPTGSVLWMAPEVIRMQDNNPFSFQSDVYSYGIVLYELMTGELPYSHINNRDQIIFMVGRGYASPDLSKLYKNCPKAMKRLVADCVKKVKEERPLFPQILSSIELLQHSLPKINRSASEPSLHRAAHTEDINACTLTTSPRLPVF

B-Raf = target: T7, B-Raf (Homo sapiens, UniProt P15056); assay: AlphaScreen kinase assay, B-Raf; conditions: read-out: IC50, activity toward kinase B-Raf
T7 construct: purchased Upstate Biotechnology

IKK beta = target: T8, IKK beta (Homo sapiens, UniProt O14920); assay: AlphaScreen kinase assay, IKK beta; conditions: read-out: IC50, activity toward kinase IKK beta
T8 sequence (O14920 1-756): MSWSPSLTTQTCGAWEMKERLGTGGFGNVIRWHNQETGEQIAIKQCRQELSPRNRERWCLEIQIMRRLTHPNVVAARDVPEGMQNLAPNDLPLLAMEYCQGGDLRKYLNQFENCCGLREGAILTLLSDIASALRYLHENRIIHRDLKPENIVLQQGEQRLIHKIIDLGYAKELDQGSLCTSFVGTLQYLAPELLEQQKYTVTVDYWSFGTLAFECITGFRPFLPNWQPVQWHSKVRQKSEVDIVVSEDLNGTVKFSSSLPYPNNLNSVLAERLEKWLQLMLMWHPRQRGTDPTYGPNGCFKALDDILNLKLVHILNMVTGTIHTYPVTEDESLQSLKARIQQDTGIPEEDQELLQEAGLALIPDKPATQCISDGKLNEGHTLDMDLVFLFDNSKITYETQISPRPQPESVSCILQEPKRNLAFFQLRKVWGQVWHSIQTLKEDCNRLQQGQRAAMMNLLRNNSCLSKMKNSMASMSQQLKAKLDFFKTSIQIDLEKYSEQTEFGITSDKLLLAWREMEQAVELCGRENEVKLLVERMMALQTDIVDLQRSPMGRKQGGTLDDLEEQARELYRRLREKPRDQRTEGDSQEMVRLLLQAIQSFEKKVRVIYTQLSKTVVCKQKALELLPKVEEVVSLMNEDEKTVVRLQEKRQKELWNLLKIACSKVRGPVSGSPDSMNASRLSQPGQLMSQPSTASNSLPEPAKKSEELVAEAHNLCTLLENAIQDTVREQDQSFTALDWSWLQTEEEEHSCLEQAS

Btk = target: T9, Btk (Homo sapiens, UniProt Q06187); assay: Z'-Lyte FRET kinase assay (Invitrogen), Btk; conditions: read-out: IC50, activity toward kinase Btk
T9 construct: purchased Invitrogen (assay run by Invitrogen)

Gsk3β = Gsk3β (Homo sapiens, UniProt P49841); assay: AlphaScreen kinase assay, Gsk3β; conditions: read-out: IC50, activity toward kinase Gsk3β
Sequence of Gsk3β (P49841 whole entry): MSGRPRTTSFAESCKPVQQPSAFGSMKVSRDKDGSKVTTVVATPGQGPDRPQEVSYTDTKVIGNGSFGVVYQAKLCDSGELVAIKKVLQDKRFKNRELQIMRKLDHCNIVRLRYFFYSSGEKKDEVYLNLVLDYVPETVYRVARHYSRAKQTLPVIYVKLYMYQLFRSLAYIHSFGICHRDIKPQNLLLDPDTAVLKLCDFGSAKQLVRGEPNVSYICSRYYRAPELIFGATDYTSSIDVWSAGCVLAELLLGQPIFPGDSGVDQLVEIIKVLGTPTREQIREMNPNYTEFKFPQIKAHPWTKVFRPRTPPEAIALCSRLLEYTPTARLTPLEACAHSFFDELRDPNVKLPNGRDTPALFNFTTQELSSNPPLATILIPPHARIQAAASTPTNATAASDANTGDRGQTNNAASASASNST
How it was run: (§3)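 Here, phosphorylation of a biotin-tagged peptide was sensed by proximity of streptavidin donor and antibody-bearing acceptor beads. Test compounds covered 8 concentrations by 1:3 serial dilution of 20 mM DMSO stocks.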

Jnk3 = target: T10, Jnk3 (Homo sapiens, UniProt P53779); assay: AlphaScreen kinase assay, Jnk3; conditions: read-out: IC50, activity toward kinase Jnk3
T10 construct: purchased Upstate Biotechnology

Kit = target: T11, Kit (Homo sapiens, UniProt P10721); assay: AlphaScreen kinase assay, Kit; conditions: read-out: IC50, activity toward kinase Kit
T11 construct: P1332.N6 BI PTP KIT M552-K948-X COD; His6 (N); made in house; host or cells: E. coli (PTP1B co-expressed)
T11 sequence (P10721 with tags, fused parts or gaps): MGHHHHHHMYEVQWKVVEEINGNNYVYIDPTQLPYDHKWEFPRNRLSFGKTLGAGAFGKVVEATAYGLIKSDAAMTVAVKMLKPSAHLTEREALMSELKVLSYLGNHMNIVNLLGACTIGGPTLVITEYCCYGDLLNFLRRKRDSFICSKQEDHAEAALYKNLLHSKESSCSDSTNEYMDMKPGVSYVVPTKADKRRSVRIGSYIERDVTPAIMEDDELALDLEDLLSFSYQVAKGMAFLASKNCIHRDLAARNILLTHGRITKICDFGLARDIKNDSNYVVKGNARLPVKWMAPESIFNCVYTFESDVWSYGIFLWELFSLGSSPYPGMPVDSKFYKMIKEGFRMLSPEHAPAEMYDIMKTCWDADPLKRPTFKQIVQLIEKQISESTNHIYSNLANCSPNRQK

Zap70 = target: T12, Zap70 (Homo sapiens, UniProt P43403); assay: AlphaScreen kinase assay, Zap70; conditions: read-out: IC50, activity toward kinase Zap70
T12 construct: P1868.pFastBac1 ZAP70 D327-G606 HIS, WT; His7 (HHHHHHH) (C); made in house
T12 sequence (P43403 with tags, fused parts or gaps): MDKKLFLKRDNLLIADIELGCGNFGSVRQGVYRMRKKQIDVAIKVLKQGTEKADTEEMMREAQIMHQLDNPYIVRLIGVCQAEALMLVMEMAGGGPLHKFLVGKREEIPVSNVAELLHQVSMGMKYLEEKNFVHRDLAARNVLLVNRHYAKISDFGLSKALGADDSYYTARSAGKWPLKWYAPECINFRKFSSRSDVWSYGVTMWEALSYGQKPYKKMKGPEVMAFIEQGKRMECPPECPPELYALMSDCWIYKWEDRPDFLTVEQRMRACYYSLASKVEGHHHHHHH
How it was run: as §3

Pyk2 = target: T13, Pyk2 (Homo sapiens, UniProt Q14289); assay: AlphaScreen kinase assay, Pyk2; conditions: read-out: IC50, activity toward kinase Pyk2
T13 construct: purchased Upstate Biotechnology

FGFR1 = target: T14, FGFR1 (Homo sapiens, UniProt P11362, C488A/C584S); assay: AlphaScreen kinase assay, FGFR1; conditions: read-out: IC50, activity toward kinase FGFR
T14 construct: P1351.pET N6 BI-PTP FGFR A458-E765-X C488A, C584S; made in house; host or cells: E. coli (PTP1B co-expressed)

Met = target: T15, Met (Homo sapiens, UniProt P08581); assay: AlphaScreen kinase assay, Met; conditions: read-out: IC50, activity toward kinase Met
T15 construct: P1818.pETN6 BI-PTP MET G1056-G1364-X WT; His6 (N); made in house; host or cells: E. coli (PTP1B co-expressed)
How it was run: as §3

Measured: IC50

T1 sequence (P35968 20-1356): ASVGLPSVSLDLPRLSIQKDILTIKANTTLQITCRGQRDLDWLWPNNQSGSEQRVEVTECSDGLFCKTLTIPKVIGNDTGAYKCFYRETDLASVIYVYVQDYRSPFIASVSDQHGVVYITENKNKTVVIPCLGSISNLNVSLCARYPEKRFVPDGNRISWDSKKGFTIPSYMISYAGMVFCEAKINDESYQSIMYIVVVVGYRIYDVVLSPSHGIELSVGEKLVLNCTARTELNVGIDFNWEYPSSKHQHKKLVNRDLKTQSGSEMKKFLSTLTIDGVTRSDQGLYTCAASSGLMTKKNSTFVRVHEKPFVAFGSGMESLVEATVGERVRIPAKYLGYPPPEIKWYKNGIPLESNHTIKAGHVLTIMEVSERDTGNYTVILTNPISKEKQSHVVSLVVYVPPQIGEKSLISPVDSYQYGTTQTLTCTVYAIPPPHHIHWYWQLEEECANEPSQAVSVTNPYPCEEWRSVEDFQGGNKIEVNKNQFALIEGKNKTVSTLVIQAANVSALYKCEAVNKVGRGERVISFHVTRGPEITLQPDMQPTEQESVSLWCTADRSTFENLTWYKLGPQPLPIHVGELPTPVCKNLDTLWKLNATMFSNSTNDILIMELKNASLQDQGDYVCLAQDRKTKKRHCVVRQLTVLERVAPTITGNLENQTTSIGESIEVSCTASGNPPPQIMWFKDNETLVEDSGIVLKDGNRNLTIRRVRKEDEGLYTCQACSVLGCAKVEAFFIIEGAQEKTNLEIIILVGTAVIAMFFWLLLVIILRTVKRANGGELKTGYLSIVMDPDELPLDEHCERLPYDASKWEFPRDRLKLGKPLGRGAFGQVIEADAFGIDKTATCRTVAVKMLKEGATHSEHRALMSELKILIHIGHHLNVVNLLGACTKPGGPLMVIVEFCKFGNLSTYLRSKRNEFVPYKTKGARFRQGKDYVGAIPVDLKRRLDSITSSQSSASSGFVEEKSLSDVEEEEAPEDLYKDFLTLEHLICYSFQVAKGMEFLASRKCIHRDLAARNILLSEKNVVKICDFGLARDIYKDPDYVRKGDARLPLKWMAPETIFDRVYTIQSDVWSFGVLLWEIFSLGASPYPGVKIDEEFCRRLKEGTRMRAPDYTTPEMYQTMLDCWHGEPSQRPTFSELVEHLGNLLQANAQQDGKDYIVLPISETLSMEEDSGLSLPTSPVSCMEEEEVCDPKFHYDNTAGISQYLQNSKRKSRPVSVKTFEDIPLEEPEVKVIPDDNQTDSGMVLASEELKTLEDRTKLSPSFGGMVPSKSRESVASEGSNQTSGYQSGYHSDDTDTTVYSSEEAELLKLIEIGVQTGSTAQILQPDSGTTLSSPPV

COc1ccc(-c2cnc3[nH]ccc3c2)cc1OC [Compound P-0212]
≤ 10 µM: Kdr | Stk6 | IGF1R

O=C(c1cc(O)ccc1F)c1c[nH]c2nccc(-c3ccccc3)c12 [Compound P-0863]
≤ 10 µM: Jak3 | Plk1 | Ret | B-Raf V600E | c-Raf-1 | B-Raf

c1cc(-c2noc(C3CC3)n2)c2cc[nH]c2n1 [Compound P-0128]
≤ 10 µM: Kdr | Stk6 | Plk1 | IKK beta

NC(=O)c1cccc(-c2ccnc3[nH]cc(C(=O)c4ccc(Cl)cc4)c23)c1 [Compound P-0135]
≤ 10 µM: Kdr | Plk1 | Btk | Ret | B-Raf V600E | IKK beta | Gsk3β

COc1cccc(-c2cnc3[nH]ccc3c2)c1 [Compound P-0213]
≤ 10 µM: Kdr | Stk6 | Jnk3 | IGF1R | Kit

Clc1ccc(Cc2c[nH]c3nccc(-c4ccsc4)c23)cn1 [Compound P-0123]
≤ 10 µM: Stk6 | Plk1 | Ret | Kit | Zap70 | Gsk3β

NC(=O)c1ccc(-c2ccnc3[nH]cc(C(=O)c4ccc(Cl)cc4)c23)cc1 [Compound P-0085]
≤ 10 µM: Kdr | Plk1 | Btk | Ret | B-Raf V600E | IKK beta | Gsk3β

CC(C)S(=O)(=O)Nc1ccc(F)c(C(O)c2c[nH]c3ncc(Br)cc23)c1F (stereo not shown) [Compound P-0178]
≤ 10 µM: Jak3 | Plk1 | Pyk2 | B-Raf V600E | c-Raf-1 | FGFR1 | B-Raf

OCc1cccc(-c2ccnc3[nH]cc(Sc4ccccc4)c23)c1 [Compound P-0146]
≤ 10 µM: Jak3 | Stk6 | Plk1 | B-Raf V600E | Met

OCc1cccc(-c2cnc3[nH]ccc3c2)c1 [Compound P-0157]
≤ 10 µM: Kdr | Stk6 | IGF1R | Kit

Nc1cccc(-c2cnc3[nH]ccc3c2)c1 [Compound P-0136]
≤ 10 µM: Kdr | Stk6 | IGF1R | Kit
